In article PMC6271273, “Chemo-Enzymatic Synthesis of Silybin and 2,3-Dehydrosilybin Dimers” (Molecules, 2014):
“And” between values parts separate entries of the source, which are not always exact repeats. Equal entries are not always repeated. Marks after values point to notes of the source that are not given here.

How the values were obtained:
[1] = system: normal human adult epidermal keratinocytes (NAK); assay: Cytotoxicity, MTT test, NAK; format: cell-based; conditions: Keratinocyte, 24 h incubation, read-out: IC50 viability (MTT-reducing ability) NAK
Procedure: (§1) All the cells were cultured in a humidified atmosphere with 5% (v/v) CO2 at 37 °C and subcultured before conﬂuence. Human Umbilical Vein Endothelial Cells (HUVEC) were isolated from umbilical cords of healthy non-smoker women (18–35 years) as described previously, cultivated in gelatin-coated flasks in EGM and used in passages 2–6. Primary Normal human Adult epidermal Keratinocytes (NAK) were isolated from normal skin obtained from excessive tissue removed during abdominoplasty or mammoplasty of healthy adult patients as described in [36, 50], cultivated in EpiLife medium with the addition of HKGS. Mouse fibroblasts (BALB/c 3T3 cells) were purchased from the European Collection of Cell Cultures (ECACC, Salisbury, UK) and were grown in DMEM supplemented with heat-inactivated FCS (5%, v/v) and newborn FCS, streptomycin […] and glutamine (4 mM). Hepatocyte carcinoma HepG2 cells (No. 85011430, ECACC) were cultured at 37 °C in DMEM supplemented with 2 mM L-glutamine, 1% non-essential amino acids, 100 U/mL penicillin, […] and 10% fetal bovine serum (Invitrogen, Carlsbad, CA, USA).
(§2) The cells were plated into 96-well cell culture plates and grown to near confluence. The tested compounds were placed in the respective fresh medium in serial dilutions (100 µL/well) and incubated with the cells for 24 h. After incubation, the medium was removed, the cells were washed with PBS, fresh medium containing 1 mg/mL of MTT was added and the plates were incubated for a further 3 h (37 °C). The resulting formazan was dissolved in 50 µL of 1% NH3 in DMSO, absorbance was read at 540 nm and IC50 values were obtained graphically from the dependence of cell viability on the concentration of the tested compound.

[2] = DPPH radical scavenging assay; format: biochemical; conditions: for IC50: 20 µM DPPH, 30 min; for DPPH [% of inhibition]: 33 µM test compound, n = 4, absorbance at 517 nm after 30 min
Procedure: Antiradical activity was evaluated spectrophotometrically as the ability of the tested substances to reduce the 1,1-diphenyl-2-picrylhydrazyl (DPPH) radical as described previously with minor modifications. Briefly, a solution of the tested substance (10 µL, final concentration 0–540 µM) were mixed with a freshly prepared methanolic DPPH solution (290 µL, final concentration 20 µM) in a microtiter plate well. After 30 min, absorbance at 517 nm was measured, percentages of inhibition were calculated using the negative control and for selected compounds the IC50 values were obtained from the inhibition curves.

[3] = Cytotoxicity, MTT test, range over all cells other than NAK; format: cell-based; conditions: human (HUVEC, HepG2) and mouse (BALB/c 3T3), all cells used other than NAK (HUVEC, BALB/c 3T3, HepG2), read-out: Cytotoxicity IC50, range over cell types
Procedure: as §1, §2

rat liver microsomes = assay: Inhibition of microsomal lipid peroxidation induced by tert-butyl hydroperoxide (TBARS); format: biochemical; conditions: for IC50: rat liver microsomes, 1 mM tert-butyl hydroperoxide, TBARS
Procedure: Microsomes were prepared from rat liver homogenate as described previously and resuspended in 50 mM Tris-HCl buffer with 100 mM KCl and 0.1 mM EDTA (pH 7.4). The protein concentration in the stock microsomal suspension was determined using the Bradford method to be typically ca 30 mg protein/mL. This stock suspension was stored at −80 °C and diluted to 0.625 mg protein/mL using PBS before use. 0.4 mL of the diluted microsomal suspension was then mixed with the compounds tested (final concentration 10–200 µM in 0.01 mL DMSO) and incubated for 10 min at 37 °C. tert-Butyl hydroperoxide (0.09 mL in PBS; final concentration 1 mM) was then added and the mixture was incubated at 37 °C for 30 min. The products of lipid peroxidation were determined as thiobarbituric acid reactive substances (TBARS): 0.7 mL of […] were added, the mixture was heated (90 °C; 30 min), cooled, centrifuged (10 min; 10,000 rpm; 4 °C) and the absorbance of the supernatant at 535 nm measured. The activity was calculated as the concentration of the tested compound that inhibited the color reaction with thiobarbiturate (without the tested compound) by 50% (IC50).

HepG2 cells = assay: Cytotoxicity, MTT test, HepG2; format: cell-based; conditions: Homo sapiens, 24 h incubation, read-out: IC50 viability (MTT-reducing ability) HepG2
Procedure: as §1, §2

[4] = system: mouse fibroblasts (BALB/c 3T3); assay: Cytotoxicity, MTT test, BALB/c 3T3; format: cell-based; conditions: BALB/c3T3, 24 h incubation, read-out: IC50 viability (MTT-reducing ability) BALB/c 3T3
Procedure: as §1, §2

[5] = system: human umbilical vein endothelial cells (HUVEC); assay: Cytotoxicity, MTT test, HUVEC; format: cell-based; conditions: 24 h incubation, read-out: IC50 viability (MTT-reducing ability) HUVEC
Procedure: as §1, §2

[6] = Square wave voltammetry (in situ / ex situ) at pyrolytic graphite electrode; format: physicochemical; conditions: for Oxidation potential Ep1 / Oxidation potential Ep2: SWV, vs. Ag/AgCl/3 M KCl, pH 7.4, n = 3; for Oxidation potential Ep1: ascribed to oxidation of C-20 OH; for Oxidation potential Ep2: oxidation of resorcinol moiety (ring A); for Adsorption onto the electrode: ex situ (adsorptive transfer) SWV, open circuit potential
Procedure: The monomeric flavonolignans and their dimers were analyzed using in situ voltammetry with the working electrode (PGE: pyrolytic graphite electrode) dipped in the supporting electrolyte containing the analytes and/or ex situ voltammetric analysis (adsorptive transfer, AdT technique). For this purpose, the PGE was first dipped into a 5 µL aliquot of the studied sample. After an accumulation period (30 s), the electrode was washed with deionized water and placed in an electrochemical cell containing pure supporting electrolyte. Square-wave voltammetry (SWV) and cyclic voltammetry (CV) were performed at room temperature with a µAutolab III analyzer (EcoChemie, Utrecht, The Netherlands) in a three-electrode setup (Ag/AgCl 3M KCl electrode as a reference and a platinum wire as the auxiliary electrode). SWV parameters: frequency: 200 Hz, from 0 V to +1.5 V, concentration of tested compounds (50 µM), supporting electrolyte: Britton-Robinson buffer, pH 7.4. The flavonolignans analyzed were dissolved in methanol as a stock solution of 1 mg mL^−1 (stored in a fridge in the dark), and diluted with the supporting electrolyte and/or 0.2 M acetate buffer (pH 5) for in situ and/or ex situ voltammetry. Ex situ a.c. voltammetry (out-of-phase) was carried out with a hanging mercury drop electrode (HMDE) according to the previously published paper. In this case, the flavonolignans (50 µM) were adsorbed from 0.2 M acetate buffer (pH 5) for 30 s. For current responses and potentials (Ep), the standard deviations (S.D.) were less than ±3.55% and ±3 mV for all experiments, respectively.

[7] = Stability of dimers in buffers, HPLC; format: physicochemical; conditions: PBS and phosphate buffers (0.2 M, pH 7.4), longer than 24 h
Procedure: The stability of the dimers in PBS buffer and phosphate buffer (0.2 M, pH 7.4) was monitored using an HPLC method. […] The chromatography was carried out in a Shimadzu Prominence UFLC system (Kyoto, Japan) consisting of a DGU-20A mobile phase degasser, two LC-20AD solvent delivery units, SIL-20ACHT cooling autosampler, CTO-10AS column oven and SPD-M20A (PDA, photodiode array detector). A Chromolith Performance RP-18e monolithic column (100 × 3 mm i.d.) and guard column (5 × 4.6 mm i.d., both Merck) were used. The PDA data were acquired in the 200–450 nm range and the 285 signal was extracted. Gradient elution: mobile phase A: 0.1% formic acid, 10% methanol in water (v/v/v); mobile phase B: 0.1% formic acid in methanol (v/v); gradient, 0–1 min, 20% B; 1–8 min, 20%–90% B; 8–9 min, 90% B, 9–10 min, 90%–20% B. The flow rate was 1.2 mL/min at 25 °C.

SMILES	IC50 [1] [µM]	IC50 [2] [µM]	DPPH [% of inhibition] [2]	IC50 at 24 h [3] [µM]	IC50 (rat liver microsomes) [µM]	IC50 (HepG2 cells) [µM]	IC50 [4] [µM]	IC50 [5] [µM]	Oxidation potential Ep1 [6] [V]	Oxidation potential Ep2 [6] [V]	Adsorption onto the electrode [6]	Activity relative to the parent molecule 1a, microsomal lipid peroxidation (rat liver microsomes; stated jointly for DPPH scavenging and microsomal lipid peroxidation tests)	Stability during longer incubation [7]	DPPH [% of inhibition] ([2]; 33 µM)
COc1cc([C@H]2Oc3cc([C@H]4Oc5cc(O)cc(O)c5C(=O)[C@@H]4O)ccc3O[C@@H]2CO)ccc1O [Compound 1a, silybin A]	> 200	225 ± 9.4	6.6 ± 1.7 ^a %	60 to 166	53.7 ± 6.1	165 ± 8.1	131 ± 8	57.8 ± 3.6						
COc1cc([C@H]2Oc3cc([C@H]4Oc5cc(O)cc(O)c5C(=O)[C@@H]4O)ccc3O[C@@H]2COC(=O)CCCCCCCCCCC(=O)OC[C@H]2Oc3ccc([C@H]4Oc5cc(O)cc(O)c5C(=O)[C@@H]4O)cc3O[C@@H]2c2ccc(O)c(OC)c2)ccc1O [Compound 3, bis(((2R,3R)-3-(4-Hydroxy-3-methoxyphenyl)-6-((2R,3R)-3,5,7-trihydroxy-4-oxochroman-2-yl)-2,3-dihydrobenzo[b][1,4]dioxin-2-yl)methyl) dodecanedioate]	> 200	137 ± 7.5	7.1 ± 2.8 ^a %	8 to 44	34 ± 4.3	51.8 ± 5.9	23.5 ± 5.6	7.6 ± 1.9	0.56	0.83	strictly limited and practically impossible	approximately 1.6 times		
COc1cc([C@@H]2Oc3cc([C@H]4Oc5cc(O)cc(O)c5C(=O)[C@@H]4O)ccc3O[C@H]2COC(=O)CCCCCCCCCCC(=O)OC[C@@H]2Oc3ccc([C@H]4Oc5cc(O)cc(O)c5C(=O)[C@@H]4O)cc3O[C@H]2c2ccc(O)c(OC)c2)ccc1O [Compound 4, bis(((2S,3S)-3-(4-Hydroxy-3-methoxyphenyl)-6-((2R,3R)-3,5,7-trihydroxy-4-oxochroman-2-yl)-2,3-dihydrobenzo[b][1,4]dioxin-2-yl)methyl) dodecanedioate]			9.0 ± 3.0 ^a %						0.57	0.83			signs of instability (decomposition)	
COc1cc([C@H]2Oc3cc([C@H]4Oc5cc(O)cc(O)c5C(=O)[C@@H]4O)ccc3O[C@@H]2COC(=O)CCCCCCCCCCC(=O)OC[C@@H]2Oc3ccc([C@H]4Oc5cc(O)cc(O)c5C(=O)[C@@H]4O)cc3O[C@H]2c2ccc(O)c(OC)c2)ccc1O [Compound 5, 1-(((2R,3R)-3-(4-Hydroxy-3-methoxyphenyl)-6-((2R,3R)-3,5,7-trihydroxy-4-oxochroman-2-yl)-2,3-dihydrobenzo[b][1,4]dioxin-2-yl)methyl) 12-(((2S,3S)-3-(4-hydroxy-3-methoxyphenyl)-6-((2R,3R)-3,5,7-trihydroxy-4-oxochroman-2-yl)-2,3-dihydrobenzo[b][1,4]dioxin-2-yl)methyl) dodecanedioate]			7.0 ± 2.9 ^a %						0.55	0.83			signs of instability (decomposition)	
COc1cc(C2Oc3cc(-c4oc5cc(O)cc(O)c5c(=O)c4O)ccc3OC2CO)ccc1O (stereo not shown) [Compound 6, 2,3-Dehydrosilybin]	> 200	6.43 ± 0.3		12 to 59	14.5 ± 0.73	58.4 ± 9	11.9 ± 3	20.9 ± 4.6	0.54	0.92				83% and 82.9 ± 0.2 ^b %
COc1cc(C2Oc3cc(-c4oc5cc(O)cc(O)c5c(=O)c4O)ccc3OC2COC(=O)CCCCCCCCCCC(=O)OCC2Oc3ccc(-c4oc5cc(O)cc(O)c5c(=O)c4O)cc3OC2c2ccc(O)c(OC)c2)ccc1O (stereo not shown) [Compound 7, bis((3-(4-Hydroxy-3-methoxyphenyl)-6-(3,5,7-trihydroxy-4-oxo-4H-chromen-2-yl)-2,3-dihydrobenzo-[b][1,4]dioxin-2-yl)methyl) dodecanedioate]	> 200	29 ± 0.7	33.4 ± 3.1 ^c %	99 to 173	59.2 ± 5.9	172 ± 11.6	161 ± 9	98.4 ± 10.6	0.57	0.99	strictly limited and practically impossible			
